Measured values taken from paper PMC6886798, “Expression of myeloid Src-family kinases is associated with poor prognosis in AML and influences Flt3-ITD kinase inhibitor acquired resistance” (PLoS ONE, 2019).

Legend:
Test in all cases: KINOMEscan
Assay type in all cases: binding
Conditions in all cases: 1.0 µM
[1] = molecular target: T1, ABL1(F317I)-phosphorylated (Homo sapiens, UniProt P00519, F317I)
T1 construct: purchased Eurofins/DiscoverX KINOMEscan scanMAX
Method: (§1) Kinase retention to the immobilized ligand is then measured using quantitative real-time PCR for each kinase-specific DNA barcode.

[2] = molecular target: T2, ABL1(F317L)-phosphorylated (Homo sapiens, UniProt P00519, F317L)
T2 construct: purchased Eurofins/DiscoverX KINOMEscan scanMAX
Method: as §1

[3] = molecular target: T3, ABL1(M351T)-phosphorylated (Homo sapiens, UniProt P00519, M351T)
T3 construct: purchased Eurofins/DiscoverX KINOMEscan scanMAX
Method: as §1

[4] = molecular target: T4, ABL1-nonphosphorylated (Homo sapiens, UniProt P00519)
T4 construct: purchased Eurofins/DiscoverX KINOMEscan scanMAX
Method: as §1

[5] = molecular target: T5, BRSK1 (Homo sapiens, UniProt Q8TDC3)
T5 construct: purchased Eurofins/DiscoverX KINOMEscan scanMAX
Method: as §1

[6] = molecular target: T6, BUB1 (Homo sapiens, UniProt O43683)
T6 construct: purchased Eurofins/DiscoverX KINOMEscan scanMAX
Method: as §1

[7] = molecular target: T7, CDK11 (Homo sapiens, UniProt Q9BWU1)
T7 construct: purchased Eurofins/DiscoverX KINOMEscan scanMAX
Method: as §1

[8] = molecular target: T8, CDK3 (Homo sapiens, UniProt Q00526)
T8 construct: purchased Eurofins/DiscoverX KINOMEscan scanMAX
Method: as §1

[9] = molecular target: T9, CSF1R-autoinhibited (Homo sapiens, UniProt P07333)
T9 construct: purchased Eurofins/DiscoverX KINOMEscan scanMAX
Method: as §1

[10] = molecular target: T10, CSNK1G2 (Homo sapiens, UniProt P78368)
T10 construct: purchased Eurofins/DiscoverX KINOMEscan scanMAX
Method: as §1

[11] = molecular target: T11, DAPK3 (Homo sapiens, UniProt O43293)
T11 construct: purchased Eurofins/DiscoverX KINOMEscan scanMAX
Method: as §1

[12] = molecular target: T12, DCAMKL2 (Homo sapiens, UniProt Q8N568)
T12 construct: purchased Eurofins/DiscoverX KINOMEscan scanMAX
T12 sequence (Q8N568 whole entry): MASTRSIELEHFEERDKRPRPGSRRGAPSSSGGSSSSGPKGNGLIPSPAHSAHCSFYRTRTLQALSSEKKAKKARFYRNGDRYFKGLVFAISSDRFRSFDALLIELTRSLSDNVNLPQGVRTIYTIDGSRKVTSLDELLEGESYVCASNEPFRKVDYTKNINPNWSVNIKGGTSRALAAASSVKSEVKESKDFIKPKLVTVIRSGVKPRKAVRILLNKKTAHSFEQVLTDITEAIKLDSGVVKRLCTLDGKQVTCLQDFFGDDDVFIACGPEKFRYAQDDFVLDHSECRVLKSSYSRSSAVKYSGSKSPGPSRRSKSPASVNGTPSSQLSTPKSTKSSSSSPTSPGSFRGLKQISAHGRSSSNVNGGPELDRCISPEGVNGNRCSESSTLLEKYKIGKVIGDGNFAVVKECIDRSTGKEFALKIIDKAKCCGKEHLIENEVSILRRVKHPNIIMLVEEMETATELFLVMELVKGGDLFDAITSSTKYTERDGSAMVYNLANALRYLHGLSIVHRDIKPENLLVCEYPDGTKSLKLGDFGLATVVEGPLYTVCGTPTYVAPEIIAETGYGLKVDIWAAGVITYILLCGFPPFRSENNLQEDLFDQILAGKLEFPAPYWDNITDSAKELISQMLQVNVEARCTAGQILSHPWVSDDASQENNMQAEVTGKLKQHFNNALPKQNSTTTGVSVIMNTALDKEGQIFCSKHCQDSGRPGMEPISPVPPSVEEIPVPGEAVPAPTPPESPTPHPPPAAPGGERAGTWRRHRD
Method: as §1

[13] = molecular target: T13, DLK (Homo sapiens, UniProt Q12852)
T13 construct: purchased Eurofins/DiscoverX KINOMEscan scanMAX
Method: as §1

[14] = molecular target: T14, EPHA7 (Homo sapiens, UniProt Q15375)
T14 construct: purchased Eurofins/DiscoverX KINOMEscan scanMAX
T14 sequence (Q15375 28-998): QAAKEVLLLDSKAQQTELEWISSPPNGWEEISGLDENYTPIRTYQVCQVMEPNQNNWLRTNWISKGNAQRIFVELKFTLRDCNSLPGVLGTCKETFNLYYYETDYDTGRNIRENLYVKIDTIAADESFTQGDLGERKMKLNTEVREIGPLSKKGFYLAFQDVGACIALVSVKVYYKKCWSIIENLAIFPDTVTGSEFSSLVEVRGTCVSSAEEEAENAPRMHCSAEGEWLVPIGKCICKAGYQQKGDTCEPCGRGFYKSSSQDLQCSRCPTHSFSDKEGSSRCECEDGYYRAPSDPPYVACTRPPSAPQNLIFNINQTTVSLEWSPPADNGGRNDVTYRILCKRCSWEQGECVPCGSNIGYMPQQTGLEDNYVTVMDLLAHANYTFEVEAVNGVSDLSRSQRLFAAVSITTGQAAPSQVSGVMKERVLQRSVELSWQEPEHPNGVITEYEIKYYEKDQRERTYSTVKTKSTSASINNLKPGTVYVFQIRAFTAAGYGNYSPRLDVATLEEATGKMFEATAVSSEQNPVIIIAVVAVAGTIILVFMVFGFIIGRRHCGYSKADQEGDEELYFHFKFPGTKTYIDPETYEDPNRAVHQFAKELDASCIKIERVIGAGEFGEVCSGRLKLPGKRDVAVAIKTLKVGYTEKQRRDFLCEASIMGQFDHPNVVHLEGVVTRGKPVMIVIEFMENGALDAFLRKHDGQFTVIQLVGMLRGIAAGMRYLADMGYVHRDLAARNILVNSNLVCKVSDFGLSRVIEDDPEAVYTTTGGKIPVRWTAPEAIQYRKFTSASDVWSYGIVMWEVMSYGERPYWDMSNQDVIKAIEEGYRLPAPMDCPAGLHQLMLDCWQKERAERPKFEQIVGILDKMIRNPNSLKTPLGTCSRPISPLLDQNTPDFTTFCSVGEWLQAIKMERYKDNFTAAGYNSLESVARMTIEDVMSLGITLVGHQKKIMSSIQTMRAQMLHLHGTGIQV
Method: as §1

[15] = molecular target: T15, EPHB4 (Homo sapiens, UniProt P54760)
T15 construct: purchased Eurofins/DiscoverX KINOMEscan scanMAX
T15 sequence (P54760 16-987): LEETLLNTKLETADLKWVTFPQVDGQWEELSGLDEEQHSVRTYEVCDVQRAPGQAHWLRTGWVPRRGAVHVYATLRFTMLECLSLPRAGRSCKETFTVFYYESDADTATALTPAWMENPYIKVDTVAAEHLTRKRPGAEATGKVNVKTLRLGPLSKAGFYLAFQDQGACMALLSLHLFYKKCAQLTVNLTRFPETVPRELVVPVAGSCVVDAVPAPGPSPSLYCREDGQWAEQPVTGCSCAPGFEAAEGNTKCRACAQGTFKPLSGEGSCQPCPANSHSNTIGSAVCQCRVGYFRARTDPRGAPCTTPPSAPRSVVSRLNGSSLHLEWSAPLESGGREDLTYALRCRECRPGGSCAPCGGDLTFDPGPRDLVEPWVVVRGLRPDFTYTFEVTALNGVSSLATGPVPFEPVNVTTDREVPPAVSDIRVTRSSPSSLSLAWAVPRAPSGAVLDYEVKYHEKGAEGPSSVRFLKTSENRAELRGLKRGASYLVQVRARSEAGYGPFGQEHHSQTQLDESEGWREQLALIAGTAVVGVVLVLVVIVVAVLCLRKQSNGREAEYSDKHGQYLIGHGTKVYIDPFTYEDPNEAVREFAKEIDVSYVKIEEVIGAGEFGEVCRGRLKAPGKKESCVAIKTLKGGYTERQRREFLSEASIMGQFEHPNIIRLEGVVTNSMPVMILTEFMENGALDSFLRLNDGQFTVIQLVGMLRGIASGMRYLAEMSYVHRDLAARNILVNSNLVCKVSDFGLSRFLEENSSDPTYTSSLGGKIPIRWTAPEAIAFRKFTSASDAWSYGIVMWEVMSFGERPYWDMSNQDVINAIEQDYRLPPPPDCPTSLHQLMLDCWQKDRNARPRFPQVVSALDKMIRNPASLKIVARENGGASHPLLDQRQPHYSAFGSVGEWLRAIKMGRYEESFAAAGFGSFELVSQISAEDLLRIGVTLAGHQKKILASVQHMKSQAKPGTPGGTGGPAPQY
Method: as §1

[16] = molecular target: T16, ERK5 (Homo sapiens, UniProt Q13164)
T16 construct: purchased Eurofins/DiscoverX KINOMEscan scanMAX
Method: as §1

[17] = molecular target: T17, FGFR3 (Homo sapiens, UniProt P22607)
T17 construct: purchased Eurofins/DiscoverX KINOMEscan scanMAX
Method: as §1

[18] = molecular target: T18, GCN2(Kin.Dom.2,S808G) (Homo sapiens, UniProt Q9P2K8, S808G)
T18 construct: GCN2(Kin.Dom.2,S808G); purchased Eurofins/DiscoverX KINOMEscan scanMAX
Method: as §1

[19] = molecular target: T19, HIPK2 (Homo sapiens, UniProt Q9H2X6)
T19 construct: purchased Eurofins/DiscoverX KINOMEscan scanMAX
Method: as §1

[20] = molecular target: T20, ICK (Homo sapiens, UniProt Q9UPZ9)
T20 construct: purchased Eurofins/DiscoverX KINOMEscan scanMAX
Method: as §1

[21] = molecular target: T21, KIT(V559D) (Homo sapiens, UniProt P10721, V559D)
T21 construct: purchased Eurofins/DiscoverX KINOMEscan scanMAX
Method: as §1

[22] = molecular target: T22, MAP3K1 (Homo sapiens, UniProt Q13233)
T22 construct: purchased Eurofins/DiscoverX KINOMEscan scanMAX
Method: as §1

[23] = molecular target: T23, MARK4 (Homo sapiens, UniProt Q96L34)
T23 construct: purchased Eurofins/DiscoverX KINOMEscan scanMAX
Method: as §1

[24] = molecular target: T24, MEK3 (Homo sapiens, UniProt P46734)
T24 construct: purchased Eurofins/DiscoverX KINOMEscan scanMAX
Method: as §1

[25] = molecular target: T25, MEK6 (Homo sapiens, UniProt P52564)
T25 construct: purchased Eurofins/DiscoverX KINOMEscan scanMAX
T25 sequence (P52564 whole entry): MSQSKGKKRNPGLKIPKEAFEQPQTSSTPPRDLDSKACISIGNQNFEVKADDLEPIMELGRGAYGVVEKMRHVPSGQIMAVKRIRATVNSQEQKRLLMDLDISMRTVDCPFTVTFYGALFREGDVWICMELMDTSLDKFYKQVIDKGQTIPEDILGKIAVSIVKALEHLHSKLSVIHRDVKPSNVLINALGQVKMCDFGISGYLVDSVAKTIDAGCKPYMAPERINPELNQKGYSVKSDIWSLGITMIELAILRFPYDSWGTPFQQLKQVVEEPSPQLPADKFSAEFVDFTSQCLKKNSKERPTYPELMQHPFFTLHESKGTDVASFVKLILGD
Method: as §1

[26] = molecular target: T26, MELK (Homo sapiens, UniProt Q14680)
T26 construct: purchased Eurofins/DiscoverX KINOMEscan scanMAX
Method: as §1

[27] = molecular target: T27, MKNK2 (Homo sapiens, UniProt Q9HBH9)
T27 construct: purchased Eurofins/DiscoverX KINOMEscan scanMAX
Method: as §1

[28] = molecular target: T28, MYLK4 (Homo sapiens, UniProt Q86YV6)
T28 construct: purchased Eurofins/DiscoverX KINOMEscan scanMAX
T28 sequence (Q86YV6 whole entry): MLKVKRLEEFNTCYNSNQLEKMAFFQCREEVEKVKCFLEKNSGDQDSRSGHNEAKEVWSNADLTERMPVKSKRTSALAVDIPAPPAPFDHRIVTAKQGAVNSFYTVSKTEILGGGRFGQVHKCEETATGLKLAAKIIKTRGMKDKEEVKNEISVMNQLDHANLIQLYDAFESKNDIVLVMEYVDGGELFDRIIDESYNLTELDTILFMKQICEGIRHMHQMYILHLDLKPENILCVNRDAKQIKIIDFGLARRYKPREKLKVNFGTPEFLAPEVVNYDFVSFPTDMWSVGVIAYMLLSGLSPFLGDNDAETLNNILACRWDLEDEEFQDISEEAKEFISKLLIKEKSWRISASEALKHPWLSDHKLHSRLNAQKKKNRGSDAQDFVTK
Method: as §1

[29] = molecular target: T29, MYO3A (Homo sapiens, UniProt Q8NEV4)
T29 construct: purchased Eurofins/DiscoverX KINOMEscan scanMAX
Method: as §1

[30] = molecular target: T30, NIM1 (Homo sapiens, UniProt Q8IY84)
T30 construct: purchased Eurofins/DiscoverX KINOMEscan scanMAX
T30 sequence (Q8IY84 whole entry): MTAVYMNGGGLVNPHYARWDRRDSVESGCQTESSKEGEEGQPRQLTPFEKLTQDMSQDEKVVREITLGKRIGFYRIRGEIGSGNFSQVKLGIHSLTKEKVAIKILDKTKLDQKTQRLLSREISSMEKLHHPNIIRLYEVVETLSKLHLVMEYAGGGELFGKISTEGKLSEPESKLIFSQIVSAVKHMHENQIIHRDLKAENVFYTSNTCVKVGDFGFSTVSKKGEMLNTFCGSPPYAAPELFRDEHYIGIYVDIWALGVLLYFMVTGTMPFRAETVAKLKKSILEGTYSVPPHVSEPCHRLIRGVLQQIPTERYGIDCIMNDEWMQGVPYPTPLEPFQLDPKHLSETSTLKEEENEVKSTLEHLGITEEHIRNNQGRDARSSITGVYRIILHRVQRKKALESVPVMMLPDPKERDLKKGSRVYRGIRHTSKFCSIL
Method: as §1

[31] = molecular target: T31, OSR1 (Homo sapiens, UniProt O95747)
T31 construct: purchased Eurofins/DiscoverX KINOMEscan scanMAX
Method: as §1

[32] = molecular target: T32, PAK7 (Homo sapiens, UniProt Q9P286)
T32 construct: purchased Eurofins/DiscoverX KINOMEscan scanMAX
T32 sequence (Q9P286 whole entry): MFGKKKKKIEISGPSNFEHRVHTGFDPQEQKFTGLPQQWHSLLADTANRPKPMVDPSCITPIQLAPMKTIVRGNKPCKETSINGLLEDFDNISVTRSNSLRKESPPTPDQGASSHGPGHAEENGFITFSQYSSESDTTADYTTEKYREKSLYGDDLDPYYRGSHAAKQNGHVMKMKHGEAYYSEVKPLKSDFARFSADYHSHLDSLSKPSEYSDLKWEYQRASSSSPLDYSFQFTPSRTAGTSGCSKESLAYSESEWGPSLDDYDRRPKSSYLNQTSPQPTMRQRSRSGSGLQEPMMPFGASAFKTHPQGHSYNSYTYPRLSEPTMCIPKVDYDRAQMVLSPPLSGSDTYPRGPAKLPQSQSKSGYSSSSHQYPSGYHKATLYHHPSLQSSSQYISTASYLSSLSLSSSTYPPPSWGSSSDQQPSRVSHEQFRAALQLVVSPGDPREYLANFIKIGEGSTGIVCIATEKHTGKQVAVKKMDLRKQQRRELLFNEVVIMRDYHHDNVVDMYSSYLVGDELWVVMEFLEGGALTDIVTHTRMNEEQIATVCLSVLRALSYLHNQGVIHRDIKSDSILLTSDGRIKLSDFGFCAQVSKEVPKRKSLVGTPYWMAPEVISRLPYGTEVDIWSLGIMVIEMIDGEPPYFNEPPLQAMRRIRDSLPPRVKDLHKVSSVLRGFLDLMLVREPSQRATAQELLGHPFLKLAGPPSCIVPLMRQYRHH
Method: as §1

[33] = molecular target: T33, PIK3CG (Homo sapiens, UniProt P48736)
T33 construct: purchased Eurofins/DiscoverX KINOMEscan scanMAX
Method: as §1

[34] = molecular target: T34, PRKCE (Homo sapiens, UniProt Q02156)
T34 construct: purchased Eurofins/DiscoverX KINOMEscan scanMAX
Method: as §1

[35] = molecular target: T35, PRKX (Homo sapiens, UniProt P51817)
T35 construct: purchased Eurofins/DiscoverX KINOMEscan scanMAX
Method: as §1

[36] = molecular target: T36, RSK3(Kin.Dom.2-C-terminal) (Homo sapiens, UniProt Q15349)
T36 construct: RSK3(Kin.Dom.2-C-terminal); purchased Eurofins/DiscoverX KINOMEscan scanMAX
Method: as §1

[37] = molecular target: T37, TNK2 (Homo sapiens, UniProt Q07912)
T37 construct: purchased Eurofins/DiscoverX KINOMEscan scanMAX
Method: as §1

[38] = molecular target: T38, TYK2(JH2domain-pseudokinase) (Homo sapiens, UniProt P29597)
T38 construct: TYK2(JH2domain-pseudokinase); DNA tag (qPCR barcode); purchased Eurofins/DiscoverX KINOMEscan scanMAX
T38 sequence (P29597 589-875 limits assumed): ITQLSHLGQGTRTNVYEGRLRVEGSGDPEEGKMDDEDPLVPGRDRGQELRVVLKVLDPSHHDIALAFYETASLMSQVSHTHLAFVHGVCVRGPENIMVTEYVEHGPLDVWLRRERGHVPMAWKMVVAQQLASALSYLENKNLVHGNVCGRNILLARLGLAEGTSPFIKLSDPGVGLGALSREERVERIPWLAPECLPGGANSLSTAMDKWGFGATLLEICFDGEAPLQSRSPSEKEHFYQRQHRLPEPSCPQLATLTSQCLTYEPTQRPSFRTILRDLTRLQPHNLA
Method: as §1

[39] = molecular target: T39, ULK2 (Homo sapiens, UniProt Q8IYT8)
T39 construct: DNA tag (qPCR barcode); purchased Eurofins/DiscoverX KINOMEscan scanMAX
Method: as §1

[40] = molecular target: T40, WNK2 (Homo sapiens, UniProt Q9Y3S1)
T40 construct: DNA tag (qPCR barcode); purchased Eurofins/DiscoverX KINOMEscan scanMAX
Method: as §1

## CN1CCN(C2CCC(n3cc(-c4ccc(Oc5ccccc5)cc4)c4c(N)ncnc43)CC2)CC1 (stereo not shown) [A-419259]
[1]
  % Control: 2.4%
[2]
  % Control: 0%
[3]
  % Control: 1.6%
[4]
  % Control: 0.1%
[5]
  % Control: 14%
[6]
  % Control: 100%
[7]
  % Control: 3.9%
[8]
  % Control: 99%
[9]
  % Control: 57%
[10]
  % Control: 84%
[11]
  % Control: 100%
[12]
  % Control: 87%
[13]
  % Control: 54%
[14]
  % Control: 100%
[15]
  % Control: 100%
[16]
  % Control: 58%
[17]
  % Control: 30%
[18]
  % Control: 79%
[19]
  % Control: 100%
[20]
  % Control: 97%
[21]
  % Control: 0.05%
[22]
  % Control: 92%
[23]
  % Control: 97%
[24]
  % Control: 91%
[25]
  % Control: 98%
[26]
  % Control: 21%
[27]
  % Control: 8.3%
[28]
  % Control: 96%
[29]
  % Control: 2.7%
[30]
  % Control: 100%
[31]
  % Control: 100%
[32]
  % Control: 89%
[33]
  % Control: 61%
[34]
  % Control: 88%
[35]
  % Control: 100%
[36]
  % Control: 100%
[37]
  % Control: 1.1%
[38]
  % Control: 95%
[39]
  % Control: 47%
[40]
  % Control: 67%
